{"source": "ChEMBL document CHEMBL1201862", "about": "“PubChem BioAssay data set” (2004)", "key": {"[1]": {"test": "THP-1 cell cytotoxicity, dose response, cytotoxicity control for Vif-APOBEC3G degradation inhibitor project, THP-1 cells (AID 1117359)", "format": "functional", "conditions": "Human immunodeficiency virus 1, THP-1"}, "Vero": {"tested_on": "Vero", "test": "cells", "format": "functional", "conditions": "Chlorocebus sabaeus"}, "[2]": {"test": "cytotoxicity toward NIH3T3 fibroblasts, dose response, counter-screen, cell-based, ATP luminescence, mouse fibroblasts (AID 2010);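 further: cells exposed to compound for about 90 hours before reading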", "format": "functional"}, "[3]": {"biological_target": "T1, Heat shock factor protein 1 (Mus musculus, UniProt P38532)", "T1 sequence (P38532 whole entry)": "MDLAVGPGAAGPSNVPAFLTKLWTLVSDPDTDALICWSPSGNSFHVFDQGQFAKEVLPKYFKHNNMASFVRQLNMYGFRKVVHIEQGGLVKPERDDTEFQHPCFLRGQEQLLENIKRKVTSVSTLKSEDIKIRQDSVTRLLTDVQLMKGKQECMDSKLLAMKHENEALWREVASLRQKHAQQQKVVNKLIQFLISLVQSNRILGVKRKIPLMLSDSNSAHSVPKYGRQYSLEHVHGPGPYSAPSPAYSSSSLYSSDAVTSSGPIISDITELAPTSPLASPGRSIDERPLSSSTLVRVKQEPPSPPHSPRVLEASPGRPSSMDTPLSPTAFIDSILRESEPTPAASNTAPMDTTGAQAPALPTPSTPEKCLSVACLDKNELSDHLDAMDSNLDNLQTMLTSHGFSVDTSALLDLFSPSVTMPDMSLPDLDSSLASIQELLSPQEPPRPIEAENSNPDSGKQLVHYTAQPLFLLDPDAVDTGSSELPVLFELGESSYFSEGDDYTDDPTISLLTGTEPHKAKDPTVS", "test": "HSF1 potentiators in luciferase reporter cells, confirmation, cell-based, NIH3T3, luminescence, dose retest (AID 435004);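 further: stress induced by proteasome inhibitor MG132 added 30 min after compound; actives raise luminescence as potentiators of the MG132 stress response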", "format": "functional"}, "Protein skinhead-1": {"biological_target": "T2, Protein skinhead-1 (Caenorhabditis elegans, UniProt P34707)", "T2 sequence (P34707 whole entry)": "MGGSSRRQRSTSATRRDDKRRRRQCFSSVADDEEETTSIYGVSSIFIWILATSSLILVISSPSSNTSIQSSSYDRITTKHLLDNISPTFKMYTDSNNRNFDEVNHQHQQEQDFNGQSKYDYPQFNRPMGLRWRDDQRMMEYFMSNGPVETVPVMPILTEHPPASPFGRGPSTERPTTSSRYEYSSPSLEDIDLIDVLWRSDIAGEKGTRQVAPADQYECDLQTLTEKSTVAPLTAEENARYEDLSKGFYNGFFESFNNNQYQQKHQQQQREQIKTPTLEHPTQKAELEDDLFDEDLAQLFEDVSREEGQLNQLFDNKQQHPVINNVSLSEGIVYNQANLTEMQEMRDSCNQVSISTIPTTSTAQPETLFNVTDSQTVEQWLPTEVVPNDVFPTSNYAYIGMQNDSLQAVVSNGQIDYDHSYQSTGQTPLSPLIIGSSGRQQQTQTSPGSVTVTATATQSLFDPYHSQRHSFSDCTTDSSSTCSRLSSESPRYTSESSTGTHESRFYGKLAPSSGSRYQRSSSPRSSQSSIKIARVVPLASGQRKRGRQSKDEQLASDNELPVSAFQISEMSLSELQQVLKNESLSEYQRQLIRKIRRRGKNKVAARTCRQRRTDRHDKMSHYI", "format": "functional"}, "[4]": {"test": "inhibitors of intracellular T. cruzi replication, confirmation, NIH3T3 host cells, beta-gal luminescence (AID 2044);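 further: luminescent beta-galactosidase reporter signal from transgenic T. cruzi replicating inside host cells; inhibitors lower the luminescence signal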", "format": "functional, cell-based"}, "[5]": {"test": "Luminescence Cell-Based Dose Retest to Confirm Inhibitors of Cancer Stem Cells. [Related pubchem assays (depositor defined):AID2717, AID2721]", "format": "functional", "conditions": "Homo sapiens"}, "[6]": {"biological_target": "Induced myeloid leukemia cell differentiation protein Mcl-1 (Homo sapiens, UniProt Q07820)", "sequence (Q07820 whole entry)": "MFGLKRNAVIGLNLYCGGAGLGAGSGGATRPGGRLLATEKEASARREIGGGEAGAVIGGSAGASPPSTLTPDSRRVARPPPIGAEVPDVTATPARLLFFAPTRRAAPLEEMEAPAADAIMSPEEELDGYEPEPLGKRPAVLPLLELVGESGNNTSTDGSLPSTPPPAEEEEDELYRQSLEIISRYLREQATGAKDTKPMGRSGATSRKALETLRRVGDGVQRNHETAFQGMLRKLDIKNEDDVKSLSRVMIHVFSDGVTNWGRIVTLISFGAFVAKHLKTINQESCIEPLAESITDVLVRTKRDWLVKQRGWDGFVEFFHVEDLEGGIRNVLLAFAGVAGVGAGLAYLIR", "format": "functional"}, "[7]": {"biological_target": "T3, Carboxy-terminal domain RNA polymerase II polypeptide A small phosphatase 1 (Homo sapiens, UniProt Q9GZU7)", "T3 sequence (Q9GZU7 whole entry)": "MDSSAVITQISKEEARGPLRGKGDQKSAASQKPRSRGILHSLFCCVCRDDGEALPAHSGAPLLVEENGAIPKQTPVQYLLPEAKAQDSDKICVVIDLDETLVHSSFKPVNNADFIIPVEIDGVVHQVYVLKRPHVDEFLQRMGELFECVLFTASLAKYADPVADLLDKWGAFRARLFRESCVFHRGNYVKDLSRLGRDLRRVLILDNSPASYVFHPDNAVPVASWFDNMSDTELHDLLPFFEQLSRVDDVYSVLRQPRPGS", "test": "inhibitors of CTDSP1, concentration-response testing, biochemical assay, absorbance-based, actives from ultra-high-throughput screening (AID 540297)", "format": "functional"}, "Cytochrome P450 2C9": {"biological_target": "Cytochrome P450 2C9 (Homo sapiens, UniProt P11712)", "sequence (P11712 whole entry)": "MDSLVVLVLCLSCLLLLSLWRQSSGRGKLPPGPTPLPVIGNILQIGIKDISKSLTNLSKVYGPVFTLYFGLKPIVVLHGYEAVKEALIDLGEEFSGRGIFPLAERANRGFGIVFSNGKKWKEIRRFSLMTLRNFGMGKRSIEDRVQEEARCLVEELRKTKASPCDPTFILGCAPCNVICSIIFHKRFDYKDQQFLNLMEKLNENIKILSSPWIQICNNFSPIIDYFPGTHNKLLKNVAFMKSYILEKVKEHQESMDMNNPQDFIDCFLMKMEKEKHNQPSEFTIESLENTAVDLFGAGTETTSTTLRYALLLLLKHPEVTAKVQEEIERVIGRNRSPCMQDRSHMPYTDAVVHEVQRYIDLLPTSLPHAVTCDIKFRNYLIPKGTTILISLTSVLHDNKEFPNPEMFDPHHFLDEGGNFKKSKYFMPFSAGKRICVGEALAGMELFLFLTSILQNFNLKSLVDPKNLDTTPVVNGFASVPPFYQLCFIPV"}, "Cytochrome P450 3A4": {"biological_target": "Cytochrome P450 3A4 (Homo sapiens, UniProt P08684)", "sequence (P08684 whole entry)": "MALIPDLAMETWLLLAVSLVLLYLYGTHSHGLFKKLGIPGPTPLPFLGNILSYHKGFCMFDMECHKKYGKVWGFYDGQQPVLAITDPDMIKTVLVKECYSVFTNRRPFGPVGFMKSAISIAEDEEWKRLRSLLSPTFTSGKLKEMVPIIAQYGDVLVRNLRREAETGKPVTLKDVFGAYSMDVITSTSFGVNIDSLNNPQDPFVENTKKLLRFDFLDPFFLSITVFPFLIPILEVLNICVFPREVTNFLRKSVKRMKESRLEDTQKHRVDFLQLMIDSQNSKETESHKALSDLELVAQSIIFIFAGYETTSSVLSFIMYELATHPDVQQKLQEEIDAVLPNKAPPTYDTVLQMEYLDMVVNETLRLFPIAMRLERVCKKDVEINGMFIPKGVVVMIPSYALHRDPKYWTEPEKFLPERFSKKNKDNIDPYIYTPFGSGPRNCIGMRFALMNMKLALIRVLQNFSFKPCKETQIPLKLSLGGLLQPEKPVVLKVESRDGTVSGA"}, "Fatty acid synthase [8]": {"biological_target": "T4, Fatty acid synthase (Homo sapiens, UniProt P49327)", "T4 sequence (P49327 whole entry, the tested form may be a part)": "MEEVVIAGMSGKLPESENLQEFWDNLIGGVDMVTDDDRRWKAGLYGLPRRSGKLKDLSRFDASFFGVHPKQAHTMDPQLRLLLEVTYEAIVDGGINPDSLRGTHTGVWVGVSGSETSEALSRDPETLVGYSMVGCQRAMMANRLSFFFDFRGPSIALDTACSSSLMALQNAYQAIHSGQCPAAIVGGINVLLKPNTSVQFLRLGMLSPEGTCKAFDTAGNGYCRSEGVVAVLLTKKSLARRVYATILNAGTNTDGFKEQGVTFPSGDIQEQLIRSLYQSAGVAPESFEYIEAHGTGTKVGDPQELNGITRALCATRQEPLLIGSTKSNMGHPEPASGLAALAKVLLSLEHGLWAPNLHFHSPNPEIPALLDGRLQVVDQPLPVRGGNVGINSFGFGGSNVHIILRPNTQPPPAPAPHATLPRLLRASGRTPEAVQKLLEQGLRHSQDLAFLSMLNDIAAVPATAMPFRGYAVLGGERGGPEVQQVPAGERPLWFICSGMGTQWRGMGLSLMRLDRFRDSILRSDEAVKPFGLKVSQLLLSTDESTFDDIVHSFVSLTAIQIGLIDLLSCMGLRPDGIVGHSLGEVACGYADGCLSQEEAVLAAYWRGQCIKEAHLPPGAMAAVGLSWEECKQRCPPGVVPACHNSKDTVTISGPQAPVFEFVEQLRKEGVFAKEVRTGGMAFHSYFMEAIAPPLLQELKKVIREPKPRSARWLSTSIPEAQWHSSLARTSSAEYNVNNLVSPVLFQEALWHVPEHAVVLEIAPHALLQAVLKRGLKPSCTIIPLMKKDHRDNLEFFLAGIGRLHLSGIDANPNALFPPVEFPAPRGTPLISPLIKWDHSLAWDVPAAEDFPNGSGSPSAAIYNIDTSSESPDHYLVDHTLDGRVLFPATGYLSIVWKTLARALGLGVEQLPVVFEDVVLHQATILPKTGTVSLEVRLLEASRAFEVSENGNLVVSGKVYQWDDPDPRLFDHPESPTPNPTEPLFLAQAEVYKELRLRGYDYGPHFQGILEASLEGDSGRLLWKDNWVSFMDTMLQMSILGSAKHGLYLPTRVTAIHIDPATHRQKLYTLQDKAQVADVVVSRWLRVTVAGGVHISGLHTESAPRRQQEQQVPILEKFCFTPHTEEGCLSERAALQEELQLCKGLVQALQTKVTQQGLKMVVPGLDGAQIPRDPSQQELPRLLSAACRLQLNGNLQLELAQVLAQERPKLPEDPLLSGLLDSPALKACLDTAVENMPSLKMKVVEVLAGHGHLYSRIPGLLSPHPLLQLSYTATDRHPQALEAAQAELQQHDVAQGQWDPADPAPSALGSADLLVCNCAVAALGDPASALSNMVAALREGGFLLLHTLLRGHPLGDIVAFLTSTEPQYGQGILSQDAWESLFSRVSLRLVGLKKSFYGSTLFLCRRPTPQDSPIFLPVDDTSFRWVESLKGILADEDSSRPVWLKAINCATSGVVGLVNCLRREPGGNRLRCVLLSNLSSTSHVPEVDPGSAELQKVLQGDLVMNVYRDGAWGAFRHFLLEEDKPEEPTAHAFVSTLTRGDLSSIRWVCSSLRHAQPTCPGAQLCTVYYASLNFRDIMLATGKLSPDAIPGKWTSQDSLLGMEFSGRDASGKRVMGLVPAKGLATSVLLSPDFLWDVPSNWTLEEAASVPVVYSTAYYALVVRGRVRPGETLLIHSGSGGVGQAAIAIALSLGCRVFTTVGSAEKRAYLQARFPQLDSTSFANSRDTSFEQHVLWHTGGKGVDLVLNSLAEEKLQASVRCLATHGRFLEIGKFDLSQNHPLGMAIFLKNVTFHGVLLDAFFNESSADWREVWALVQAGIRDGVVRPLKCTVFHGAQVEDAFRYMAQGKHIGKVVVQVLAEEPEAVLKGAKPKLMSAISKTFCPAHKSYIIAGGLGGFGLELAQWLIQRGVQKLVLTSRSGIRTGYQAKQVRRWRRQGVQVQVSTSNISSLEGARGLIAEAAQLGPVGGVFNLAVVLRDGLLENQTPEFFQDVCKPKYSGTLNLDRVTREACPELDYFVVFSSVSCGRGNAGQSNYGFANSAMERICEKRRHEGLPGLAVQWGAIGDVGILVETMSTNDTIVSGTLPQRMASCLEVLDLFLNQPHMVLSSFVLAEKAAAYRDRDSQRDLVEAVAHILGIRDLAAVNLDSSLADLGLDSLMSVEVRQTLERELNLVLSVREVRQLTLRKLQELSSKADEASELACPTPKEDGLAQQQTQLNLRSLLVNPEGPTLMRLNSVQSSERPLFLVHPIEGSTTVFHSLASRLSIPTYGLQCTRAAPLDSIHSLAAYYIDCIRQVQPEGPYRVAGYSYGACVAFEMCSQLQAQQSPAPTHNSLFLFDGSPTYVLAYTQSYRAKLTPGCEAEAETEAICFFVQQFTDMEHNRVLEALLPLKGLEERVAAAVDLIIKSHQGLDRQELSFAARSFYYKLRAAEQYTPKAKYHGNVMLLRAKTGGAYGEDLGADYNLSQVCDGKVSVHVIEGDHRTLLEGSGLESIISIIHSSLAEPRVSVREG", "test": "FAS thioesterase domain inhibitors, dose response, biochemical, endpoint fluorescence intensity, uHTS hits (AID 624327);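 further: fluorescence from hydrolysis of an O-methyl fluorescein acyl ester substrate by the enzyme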", "format": "functional"}, "Fatty acid synthase [9]": {"biological_target": "T4, Fatty acid synthase", "test": "FAS thioesterase domain inhibitors, dose response, biochemical, kinetic fluorescence intensity (AID 624326);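 further: rate of fluorescence rise from hydrolysis of a fluorogenic O-methyl fluorescein ester substrate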", "format": "functional"}}, "note": "Activity calls are given as the source filed them.", "data": [{"smiles": "CCc1ccc(N(C2C=CS(=O)(=O)C2)S(=O)(=O)c2ccc(C)cc2)cc1", "note": "(stereo not drawn)", "values": [{"measurement": "CC50", "setting": "[1]", "result": "> 40 µM (active)"}]}, {"smiles": "CCC1CSC(Nc2ccc(C(=O)/C=C/c3cccc(C)c3)cc2)=N1", "note": "(stereo not drawn)", "values": [{"measurement": "CC50", "setting": "Vero", "result": "> 25 µM (active)"}, {"measurement": "EC50", "setting": "[2]", "result": "> 60 µM (not active)"}, {"measurement": "EC50", "setting": "[3]", "result": "12.9 µM (active)"}, {"measurement": "IC50", "setting": "Protein skinhead-1", "result": "> 100 µM (inactive)"}, {"measurement": "EC50", "setting": "[4]", "result": "3.06 µM (active)"}, {"measurement": "AC50", "setting": "[5]", "result": "5.77 µM (active)"}, {"measurement": "IC50", "setting": "[6]", "result": "1.66 µM (active)"}]}, {"smiles": "Cc1c(Cl)cnc(NC(=O)COC(=O)c2ccc(S(=O)(=O)NCc3ccco3)cc2)c1Cl", "values": [{"measurement": "IC50", "setting": "[7]", "result": "8.67 µM (active)"}]}, {"smiles": "COc1ccc(CC(=O)N2CCCC(C)C2)cc1", "note": "(stereo not drawn)", "values": [{"measurement": "IC50", "setting": "Protein skinhead-1", "result": "> 100 µM (inactive)"}]}, {"smiles": "Cc1ccc2[nH]c(/C(C#N)=C\\c3ccc(Oc4ccc(C(F)(F)F)cc4[N+](=O)[O-])cc3)nc2c1", "values": [{"measurement": "IC50", "setting": "[7]", "result": "2.42 µM (active)"}]}, {"smiles": "O=C(Oc1ccc(C(=S)N2CCOCC2)cc1Br)c1cc(Cl)ccc1Cl", "values": [{"measurement": "EC50", "setting": "[3]", "result": "68.8 µM (active)"}, {"measurement": "AC50", "setting": "Cytochrome P450 2C9", "result": "inconclusive"}, {"measurement": "AC50", "setting": "Cytochrome P450 3A4", "result": "12.6 µM (inconclusive)"}]}, {"smiles": "O=C(C1CCN(S(=O)(=O)c2c(Cl)cccc2Cl)CC1)N1CCCC1", "values": [{"measurement": "IC50", "setting": "Protein skinhead-1", "result": "> 100 µM (inactive)"}]}, {"smiles": "O=C(/C=C/c1cccc([N+](=O)[O-])c1)N1CCN(c2ccccc2F)CC1", "values": [{"measurement": "IC50", "setting": "Fatty acid synthase [8]", "result": "11.6 µM (active)"}, {"measurement": "IC50", "setting": "Fatty acid synthase [9]", "result": "6.52 µM (active)"}]}, {"smiles": "CCN(CC)P(=S)(c1c(C)nc2ccccn12)c1c(C)nc2ccccn12", "values": [{"measurement": "CC50", "setting": "[1]", "result": "13.9 µM (active)"}]}]}
